Experimental data taken from the supplement of paper PMC10307832.

Experiments:
Experiment in all cases: relative viability (nuclei count vs DMSO), 5 days (fraction); higher = more cells survive
Adavosertib + Bortezomib = compound: C=CCn1c(=O)c2cnc(Nc3ccc(N4CCN(C)CC4)cc3)nc2n1-c1cccc(C(C)(C)O)n1 [Adavosertib] + CC(C)C[C@H](NC(=O)[C@H](Cc1ccccc1)NC(=O)c1cnccn1)B(O)O [Bortezomib] (partner 0.002 µM)
How it was run: (§1)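 The day after seeding in 1536-well plates, lung cancer cell lines were treated by pin tool with a single drug, or with a fixed anchor-drug dose together with five library-drug doses (not always all listed) in √10 steps. After 5 days, a combined fix-and-stain solution (final 0.05% Triton X-100, 1% formaldehyde, 1 ug/ml Hoechst) was added. Nuclei counted on 4× images gave relative viability as treated counts over vehicle counts, reported as the median of duplicate plates.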

Adavosertib + Linsitinib = compound: C=CCn1c(=O)c2cnc(Nc3ccc(N4CCN(C)CC4)cc3)nc2n1-c1cccc(C(C)(C)O)n1 [Adavosertib] + C[C@]1(O)C[C@@H](c2nc(-c3ccc4ccc(-c5ccccc5)nc4c3)c3c(N)nccn32)C1 [Linsitinib] (partner 1 µM)
How it was run: as §1

Nelarabine + Palbociclib = compound: COc1nc(N)nc2c1ncn2[C@@H]1O[C@H](CO)[C@@H](O)[C@@H]1O [Nelarabine] + CC(=O)c1c(C)c2cnc(Nc3ccc(N4CCNCC4)cn3)nc2n(C2CCCC2)c1=O [Palbociclib] (partner 0.5 µM)
How it was run: as §1

Nelarabine + Dasatinib = compound: COc1nc(N)nc2c1ncn2[C@@H]1O[C@H](CO)[C@@H](O)[C@@H]1O [Nelarabine] + Cc1nc(Nc2ncc(C(=O)Nc3c(C)cccc3Cl)s2)cc(N2CCN(CCO)CC2)n1 [Dasatinib] (partner 0.075 µM)
How it was run: as §1

Cell Line | relative viability (Adavosertib + Bortezomib; first compound 0.01 µM) | relative viability (Adavosertib + Bortezomib; first compound 0.03162 µM) | relative viability (Adavosertib + Bortezomib; first compound 0.1 µM) | relative viability (Adavosertib + Bortezomib; first compound 0.3162 µM) | relative viability (Adavosertib + Linsitinib; first compound 0.01 µM) | relative viability (Adavosertib + Linsitinib; first compound 0.03162 µM) | relative viability (Adavosertib + Linsitinib; first compound 0.1 µM) | relative viability (Adavosertib + Linsitinib; first compound 0.3162 µM) | relative viability (Nelarabine + Palbociclib; first compound 0.01 µM) | relative viability (Nelarabine + Palbociclib; first compound 0.03162 µM) | relative viability (Nelarabine + Palbociclib; first compound 0.1 µM) | relative viability (Nelarabine + Palbociclib; first compound 0.3162 µM) | relative viability (Nelarabine + Palbociclib; first compound 1 µM) | relative viability (Nelarabine + Dasatinib; first compound 0.01 µM) | relative viability (Nelarabine + Dasatinib; first compound 0.03162 µM) | relative viability (Nelarabine + Dasatinib; first compound 0.1 µM) | relative viability (Nelarabine + Dasatinib; first compound 0.3162 µM) | relative viability (Nelarabine + Dasatinib; first compound 1 µM)
NCI-H1755 | 0.965 | 0.905 | 1.01 | 1.03 | 0.997 | 0.956 | 0.992 | 0.997 | 0.462 | 0.464 | 0.462 | 0.463 | 0.453 | 0.457 | 0.349 | 0.135 | 0.506 | 0.479
LXF-289 | 0.959 | 0.948 | 0.999 | 0.999 | 0.936 | 0.97 | 0.944 | 1.02 | 0.708 | 0.548 | 0.62 | 0.625 | 0.59 | 0.156 | 0.218 | 0.146 | 0.202 | 0.196
HOP-62 | 0.941 | 1.08 | 1.03 | 1.03 | 0.981 | 1.02 | 1.09 | 1.03 | 0.567 | 0.49 | 0.496 | 0.419 | 0.485 | 0.635 | 0.636 | 0.395 | 0.764 | 0.738
NCI-H2126 | 1.12 | 1.17 | 1.11 | 1.15 | 0.695 | 0.712 | 0.703 | 0.722 | 0.347 | 0.352 | 0.326 | 0.353 | 0.403 | 0.701 | 0.55 | 0.43 | 0.692 | 0.639
NCI-H1355 | 1.15 | 1.17 | 1.18 | 1.16 | 0.892 | 0.701 | 0.872 | 0.808 | 0.398 | 0.316 | 0.401 | 0.401 | 0.447 | 0.849 | 0.573 | 0.564 | 0.744 | 0.706
